Experiment [1] deals with T1, NUAK1 (Homo sapiens, UniProt O60285).
T1 sequence (O60285 1-661): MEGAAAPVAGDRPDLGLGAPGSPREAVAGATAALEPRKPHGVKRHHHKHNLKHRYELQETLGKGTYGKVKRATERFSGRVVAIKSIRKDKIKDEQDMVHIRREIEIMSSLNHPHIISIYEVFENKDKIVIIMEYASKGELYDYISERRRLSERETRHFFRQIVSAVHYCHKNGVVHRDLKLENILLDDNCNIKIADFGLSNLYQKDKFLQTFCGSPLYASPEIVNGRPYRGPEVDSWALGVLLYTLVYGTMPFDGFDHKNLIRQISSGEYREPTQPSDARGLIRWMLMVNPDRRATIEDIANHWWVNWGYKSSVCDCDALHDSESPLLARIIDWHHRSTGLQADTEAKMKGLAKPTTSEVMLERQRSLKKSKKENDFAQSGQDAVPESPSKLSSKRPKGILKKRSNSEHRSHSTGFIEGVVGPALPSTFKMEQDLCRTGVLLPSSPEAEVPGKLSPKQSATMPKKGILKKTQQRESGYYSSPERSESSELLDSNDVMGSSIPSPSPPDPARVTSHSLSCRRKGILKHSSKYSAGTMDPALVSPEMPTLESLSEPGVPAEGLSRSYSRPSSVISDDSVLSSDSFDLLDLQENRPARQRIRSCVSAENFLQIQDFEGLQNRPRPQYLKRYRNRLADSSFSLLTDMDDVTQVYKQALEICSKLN
Briefly: Kinase activity inhibition assay, P81 filter paper binding hot-spot technique (33P-ATP, CHKtide substrate). The format is biochemical. The settings on record: final concentration of NUAK1 10 nM; 20 µM CHKtide substrate; incubated 2 hours at room temperature; read-out: IC50 (nM) of Test Compounds of the Present Application against NUAK1. As to the method:
(§1) The inhibitory activity of the pyrimidinamine small molecules involved in the present application against NUAK1 and NUAK2 kinases was determined using a kinase activity assay based on the P81 filter paper binding hot-spot technique (Nat Biotechnol. 2011, 29:1039). A brief description is as follows:
(§2) The assay buffer system contained 20 mM Hepes (pH 7.5), 10 mM MgCl2, 1 mM EGTA, 0.01% Brij35 (L23 polyoxyethylene lauryl ether), 0.02 mg/mL BSA (bovine serum albumin), 0.1 mM Na3VO4, 2 mM DTT, and 1% DMSO.
(§3) • 1. A 20 µM substrate solution was prepared with freshly prepared test buffer and CHKtide peptide fragments (Sanchez Y. Science. 1997, 277: 1497-1501) were used as a substrate. • 2. Kinases were added and mixed gently (a final concentration of NUAK1 was 10 nM; and a final concentration of NUAK2 was 50 nM). • 3. Test compounds dissolved in 100% DMSO were each added to the above kinase reaction mixture solution via Acoustic Droplet Ejection (Echo550; nanoliter) and the mixture was incubated for 5 minutes at room temperature. • 4. ^33P-labeled ATP (a ratio of unlabeled ATP to labeled ATP was 25:1 or 2.5:1) was added. • 5. The mixture was incubated for 2 hours at room temperature. • 6. Kinase activity was tested using the P81 filter paper combined with hotspot technology.
(§4) The IC50 values of the test compounds against NUAK1/NUAK2 were calculated according to the above test. For specific results, see Table 1.
(§5) The IC50 values were calculated by using a formula derived from sigmoidal dose-response curve (variable slope):
(§6) Y = Bottom + (Top-Bottom)/(1+10^((LogEC50-X)*Slope, where X is the logarithm of compound concentration, Y is the response (inhibition rate of kinase activity), and Y rises from bottom to top along the sigmoidal curve as the concentration increases. Table 1: IC50 (nM) of Test Compounds of the Present Application against NUAK1/NUAK2

Experiment [2] concerns the target T2, NUAK2 (Homo sapiens, UniProt Q9H093).
T2 sequence (Q9H093 1-628): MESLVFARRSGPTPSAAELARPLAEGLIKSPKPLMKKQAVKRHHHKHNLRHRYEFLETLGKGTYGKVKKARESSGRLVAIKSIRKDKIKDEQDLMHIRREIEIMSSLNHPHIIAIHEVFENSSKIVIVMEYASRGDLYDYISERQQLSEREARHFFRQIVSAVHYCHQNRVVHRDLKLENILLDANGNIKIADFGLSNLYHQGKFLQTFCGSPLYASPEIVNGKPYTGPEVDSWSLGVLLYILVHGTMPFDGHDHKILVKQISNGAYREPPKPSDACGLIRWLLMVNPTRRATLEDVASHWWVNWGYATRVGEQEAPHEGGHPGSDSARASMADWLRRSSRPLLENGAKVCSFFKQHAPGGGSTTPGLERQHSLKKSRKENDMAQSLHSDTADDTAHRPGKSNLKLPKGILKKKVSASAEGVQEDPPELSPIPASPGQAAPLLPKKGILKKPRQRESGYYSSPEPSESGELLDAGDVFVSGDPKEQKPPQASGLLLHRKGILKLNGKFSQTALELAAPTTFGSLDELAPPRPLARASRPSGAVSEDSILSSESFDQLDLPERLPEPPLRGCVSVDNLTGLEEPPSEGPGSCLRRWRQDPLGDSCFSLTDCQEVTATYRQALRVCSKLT
The experiment is described as above. The format is biochemical. As to conditions: final concentration of NUAK2 50 nM; 20 µM CHKtide substrate; incubated 2 hours at room temperature; read-out: IC50 (nM) of Test Compounds of the Present Application against NUAK2. As to the method:
as §1, §2, §3, §4, §5, §6

Broadly, the IC50 is the point on the concentration scale where inhibition reaches its midpoint. For `CN1CCN(c2ccc(Nc3ncc(Cl)c(N(C)c4cccc(NC(=O)[C@@H]5CC5(F)F)c4)n3)cc2)CC1` [TDM-181131, (S)-N-(3-((5-Chloro-2-((4-(4-methylpiperazin-1-yl)phenyl)amino)pyrimidin-4-yl)(methyl)amino)phenyl)-2,2-difluorocyclopropane-1-carboxamide], the figures for the IC50 in experiment [1] and in experiment [2] were 81 nM and 635 nM, respectively.
The like results for `CN1CCN(c2ccc(Nc3ncc(Cl)c(Oc4cccc(NC(=O)C5CC5(F)F)c4)n3)cc2)CC1` (stereo not shown) [TDM-181120] were, in that order, 21 nM and 311 nM.
Consider `COc1cc(N2CCN(C)CC2)ccc1Nc1ncc(Cl)c(Oc2ccccc2NC(=O)C2CC2)n1` [TDM-181132, N-(2-((5-Chloro-2-((2-methoxy-4-(4-methylpiperazin-1-yl)phenyl)amino)pyrimidin-4-yl)oxy)phenyl)cyclopropanecarboxamide], for which the results for the half-inhibitory concentration (IC50) in experiment [1] and in experiment [2] were 24 nM and 37 nM, respectively.
The like results for `COc1cc(N2CCN(C)CC2)ccc1Nc1ncc(Cl)c(Oc2ccccc2NC(=O)[C@@H]2CC2(F)F)n1` [TDM-181160, (S)-N-(2-((5-Chloro-2-((2-methoxy-4-(4-methylpiperazin-1-yl)phenyl)amino)pyrimidin-4-yl)oxy)phenyl)-2,2-difluorocyclopropane-1-carboxamide] were, in that order, 4 nM and 13 nM.
For `O=C(Nc1cccc(Oc2nc(Nc3cnn(C4CCNCC4)c3)ncc2Cl)c1)C1CC1(F)F` (stereo not shown) [TDM-181127, N-(3-((5-Chloro-2-((1-(piperidin-4-yl)-1H-pyrazol-4-yl)amino)pyrimidin-4-yl)oxy)phenyl)-2,2-difluorocyclopropane-1-carboxamide], in that order: 161 nM and 352 nM.
